Where two headings read alike, the source gives them in different places.
Columns and labels:
Assay type in all cases: cell-based, Staphylococcus aureus
[1] = test system: biofilm of S. aureus ATCC 6538; assay: 96-well plate crystal violet assay for biofilm inhibition; details: for inhibition at 3.125 µg/mL / inhibition at 6.25 µg/mL / inhibition at 12.5 µg/mL / inhibition at 25 µg/mL / inhibition at 50 µg/mL / inhibition at 100 µg/mL: Staphylococcus aureus, ATCC6538
Protocol: The quantitative determination of biofilm inhibition was carried out by the crystal violet assay on a sterile 96-well plate with slight modifications. The glycerol stock of S. aureus was revived overnight at 37°C at 80 rpm. The overnight culture was then diluted 100 folds in fresh BHI broth, supplemented with 0.25% glucose. The cell density was adjusted to 1×10^7 and 195μL of the cell suspension was added in 96-well plate. […] Following that, the plate was washed with sterile distilled water in order to decant the non-adherent cells, and media. The plate was then dried at 60°C for 1 hour, and 200 μL of 0.1% (w/v) crystal violet was added to stain biofilm for 20 minutes. The plate was washed again, air dried, and dispensed 30% (v/v) acetic acid in each well to dissolve the biofilm. The inhibition of biofilm formation was analyzed by measuring the absorbance at 595 nm using the microplate reader (Multiskan Sky, Thermo Scientific, USA). The percent inhibition of biofilm formation was calculated via the following formula: 100−ƛTreated−ƛBlank/ƛControl−ƛBlank×100 Whereƛ=absorbance

S. aureus = assay: Antibacterial activity (bacterial growth inhibition); details: at 100 μg/mL
S. aureus biofilm = assay: Atomic force microscopy analysis of biofilm disruption; details: compared to control S. aureus cells, 24 hours
Protocol: The size and structure of disrupted biofilm was analyzed. Briefly, a pure single colony of S. aureus was inoculated in BHI broth and grown for 18–24 hours at 37°C. Following incubation, the cells were diluted in BHI broth, and density was adjusted to 1×10^7 before loading on a sterile silicon chip placed in 24-well plate, then silicon chips were treated with active compounds. The plate was then sealed, and placed in an incubator for 24 hours at 37°C. After incubation, the treated silicon chips were washed with autoclaved distilled water thrice, air dried, and the samples were analyzed by atomic force microscope (Agilent Technologies, USA).

[2] = test system: biofilm cells of the S. aureus strain (ATCC 6538); assay: Biofilm analysis by fluorescence microscopy (SYTO-9/PI); details: SYTO-9/PI staining, S. aureus ATCC 6538, 24 hours
Protocol: Briefly, 1×10^7 cells were loaded in 96-well plate, and treated with active compounds. Plate was sealed, and incubated for 24 hours at 37°C. Following incubation, plate was washed with sterile distilled water, and cells were stained with […] SYTO-9 and 5 μM PI, for 30 minutes in dark at room temperature. After incubation, the wells were washed again, and air dried. Images were taken, and then visualized by Nikon Eclipse TE2000, USA [23]. Propidium Iodide (PI) staining indicates membrane integrity, as it can only pass through compromised membranes of non-viable cells, giving red fluorescence. On the contrary, Syto-9 can pass through all cells despite of their membrane integrity, and binds to DNA/RNA by emitting green fluorescence.

[3] = S. aureus ATCC 6538, replicate 1, read-out: % Inhibition 1
[4] = S. aureus ATCC 6538, replicate 2, read-out: % Inhibition 2
[5] = S. aureus ATCC 6538, replicate 3, read-out: % Inhibition 3
[6] = S. aureus ATCC 6538, read-out: Mean % Inhibition

With `O=c1oc2ccccc2cc1-c1csc(N/N=C/c2cc(Cl)cc(Br)c2)n1` [Compound 17, (E)-3-(2-(2-(3-Bromo-5-chlorobenzylidene)hydrazinyl)thiazol-4-yl)-2H-chromen-2-one] the inhibition at 3.125 µg/mL [1, 3] was 1.64%, the inhibition at 3.125 µg/mL [1, 4] was 1.36% and the inhibition at 3.125 µg/mL [1, 5] was 1.84%. The inhibition at 3.125 µg/mL [1, 6] was 1.61%, the inhibition at 6.25 µg/mL [1, 3] was 3.64% and the inhibition at 6.25 µg/mL [1, 4] was 3.52%. The inhibition at 6.25 µg/mL [1, 5] was 3.97%, the inhibition at 6.25 µg/mL [1, 6] was 3.71% and the inhibition at 12.5 µg/mL [1, 3] was 0.03%. For the same molecule, the inhibition at 12.5 µg/mL [1, 4] was 0.03%, the inhibition at 12.5 µg/mL [1, 5] was 0.01% and the inhibition at 12.5 µg/mL [1, 6] was 0.0233%. It also gave an inhibition at 25 µg/mL [1, 3] of 15.9%, an inhibition at 25 µg/mL [1, 4] of 15.1% and an inhibition at 25 µg/mL [1, 5] of 16.9%. For the same molecule, the inhibition at 25 µg/mL [1, 6] was 15.9%, the inhibition at 50 µg/mL [1, 3] was 55.1% and the inhibition at 50 µg/mL [1, 4] was 53%. The inhibition at 50 µg/mL [1, 5] was 57%, the inhibition at 50 µg/mL [1, 6] was 55% and the inhibition at 100 µg/mL ([1]; 100 µg/mL, S. aureus ATCC 6538, replicate 1, read-out: % Inhibition 1) was 77.9%. For the same molecule, the inhibition at 100 µg/mL ([1]; 100 µg/mL, S. aureus ATCC 6538, replicate 2, read-out: % Inhibition 2) was 77.6%, the inhibition at 100 µg/mL ([1]; 100 µg/mL, S. aureus ATCC 6538, replicate 3, read-out: % Inhibition 3) was 82.3% and the inhibition at 100 µg/mL ([1]; 100 µg/mL, S. aureus ATCC 6538, read-out: Mean % Inhibition) was 79.3%. For the same molecule, the inhibition at 100 µg/mL ([1]; at 100 μg/mL, biofilm of S. aureus, 24 hours, read-out: Antibiofilm Activity (% Inhibition ± SEM)) was 69 ± 1.75%, the “Antibiofilm Activity (% Inhibition ± SEM)” value ([1]; at 100 μg/mL, biofilm of S. aureus, 24 hours) was “high potential to inhibit the biofilms” and the inhibition at 100 µg/mL (S. aureus; Staphylococcus aureus, read-out: Antibacterial Activity (% Inhibition ± SEM)) was 20 ± 4.64%. For the same molecule, the “Antibacterial Activity (% Inhibition ± SEM)” value (S. aureus) was “low antibacterial effect”, the “Biofilm disruption seen by AFM” value (S. aureus biofilm) was “Disrupted biofilm surfaces” and the “Biofilm disruption seen by fluorescence microscopy” value [2] was “Disruption on the surface of biofilm”.

Reference: article PMC11412489, “Coumarin derivatives as new anti-biofilm agents against Staphylococcus aureus” (PLOS ONE, 2024)
